Measurements reported in paper PMC7489219 (Molecular Brain, 2020).
Where a name gives a salt, the structure may show the parent alone.

System: T1, primary mouse cortical neurons
T1 construct: primary cortical neurons, DIV 10
Test: cells
Parameters: Protection from NMDA-induced (30 uM, 10 min) neuronal death; Hoechst nuclear morphology by automated microscopy
Settings: Cortical neurone, 20 h, read-out: % inhibition, inhibition of NMDA-induced cell death (protection score), 30 min pre-treatment
Outline: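 On DIV 10, primary mouse cortical neurons were given compound at 10 μM for 30 min at 37 °C, then 30 μM NMDA for 10 min, washed, and kept 20 h with compound. Dead cells were scored by nuclear morphology, and % protection was derived from survival relative to vehicle + NMDA and untreated controls.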

| SMILES | inhibition at 10 µM [%] |
| --- | --- |
| O=C1CCC(N2C(=O)c3ccccc3C2=O)C(=O)N1 (centres unmarked) [Thalidomide] | -3.3 |
| Cn1cnc2c1c(=O)[nH]c(=O)n2C [Theobromine (3,7-Dimethylxanthine)] | 0.993 |
| Nc1nc2[nH]cnc2c(=S)[nH]1 [Thioguanine] | 13 |
| O=c1oc2cc(O)ccc2s1 [Tioxolone] | -0.329 |
| Cc1ccc(O)c([C@H](CCN(C(C)C)C(C)C)c2ccccc2)c1 [Tolterodine tartrate (Detrol LA)] | -2.31 |
| CC1(C)O[C@@H]2[C@@H](CO[C@@]3(COS(N)(=O)=O)OC(C)(C)O[C@@H]23)O1 [Topiramate] | 11.4 |
| CC[C@@]1(O)C(=O)OCc2c1cc1n(c2=O)Cc2cc3c(CN(C)C)c(O)ccc3nc2-1 [Topotecan HCl] | -1.54 |
| CN(C)CCOc1ccc(/C(=C(/CCCl)c2ccccc2)c2ccccc2)cc1 [Toremifene Citrate (Fareston, Acapodene)] | -2.81 |
| Cc1cccc(Nc2ccncc2S(=O)(=O)NC(=O)NC(C)C)c1 [Torsemide (Demadex)] | 22 |
| COc1ccc(/C=C/C(=O)Nc2ccccc2C(=O)O)cc1OC [Tranilast (SB 252218)] | -11.4 |
| O=c1n(CCCN2CCN(c3cccc(Cl)c3)CC2)nc2ccccn12 [Trazodone hydrochloride (Desyrel)] | -1.4 |
| CC1=C(/C=C/C(C)=C/C=C/C(C)=C/C(=O)O)C(C)(C)CCC1 [Tretinoin (Aberela)] | -38.4 |
| C[C@]12C=CC(=O)C=C1CC[C@H]1[C@@H]3C[C@@H](O)[C@](O)(C(=O)CO)[C@@]3(C)C[C@H](O)[C@@]12F [Triamcinolone (Aristocort)] | 16.3 |
| CC1(C)O[C@@H]2C[C@H]3[C@@H]4CCC5=CC(=O)C=C[C@]5(C)[C@@]4(F)[C@@H](O)C[C@]3(C)[C@]2(C(=O)CO)O1 [Triamcinolone acetonide] | 59.8 |
| O=c1[nH]c(=O)n([C@H]2C[C@H](O)[C@@H](CO)O2)cc1C(F)(F)F [Trifluridine (Viroptic)] | 9.42 |
| C[C@]12CC[C@H]3[C@@H](CC[C@@]45O[C@@H]4C(O)=C(C#N)C[C@]35C)[C@@H]1CC[C@@H]2O [Trilostane] | 4.15 |
| CC(C)[C@]12O[C@H]1[C@@H]1O[C@]13[C@]1(O[C@H]1C[C@H]1C4=C(CC[C@@]13C)C(=O)OC4)[C@@H]2O [Triptolide] | -1.79 |
| CN1[C@@H]2CC[C@H]1C[C@@H](OC(=O)c1c[nH]c3ccccc13)C2 [Tropisetron] | -4.08 |
| O=C(OC1C[C@H]2CC[C@@H](C1)[N+]21CCCC1)C(O)(c1ccccc1)c1ccccc1 (some centres unmarked) [Trospium chloride (Sanctura)] | 7.49 |
| C[C@@H]1O[C@@H](OC[C@H]2O[C@@H](Oc3c(-c4ccc(OCCO)c(OCCO)c4)oc4cc(OCCO)cc(O)c4c3=O)[C@H](O)[C@@H](O)[C@@H]2O)[C@H](O)[C@H](O)[C@H]1O [Troxerutin] | 23.8 |
| C[C@H](CCC(=O)O)[C@H]1CC[C@H]2[C@@H]3[C@@H](O)C[C@@H]4C[C@H](O)CC[C@]4(C)[C@H]3CC[C@]12C [Ursodiol (Actigal Urso)] | 35.3 |

| SMILES | inhibition at 10 µM [%] |
| --- | --- |
| C[C@H]1[C@H](C)CC[C@]2(C(=O)O)CC[C@]3(C)C(=CC[C@@H]4[C@@]5(C)CC[C@H](O)C(C)(C)[C@@H]5CC[C@]43C)[C@H]12 [Ursolic acid (Malol)] | 6.94 |
| CCCCC(=O)N(Cc1ccc(-c2ccccc2-c2nn[nH]n2)cc1)[C@H](C(=O)O)C(C)C [Valsartan (Diovan)] | -0.714 |
| COc1cc2/c(=N/c3ccc(Br)cc3F)nc[nH]c2cc1OCC1CCN(C)CC1 [Vandetanib (Zactima)] | -8.86 |
| COc1cc(C=O)ccc1O [Vanillin] | -1.73 |
| COc1cc(CCC(C)=O)ccc1O [Vanillylacetone] | 7.76 |
| CCCc1nc(C)c2c(=O)nc(-c3cc(S(=O)(=O)N4CCN(CC)CC4)ccc3OCC)[nH]n12 [Vardenafil (Vivanza)] | -5.64 |
| COc1ccc(C(CN(C)C)C2(O)CCCCC2)cc1 (centres unmarked) [Venlafaxine] | 22.6 |
| COC[C@@H](c1ccc(C(F)(F)F)cc1)N1CCN(C2(C)CCN(C(=O)c3c(C)ncnc3C)CC2)C[C@@H]1C [Vicriviroc Malate] | 0.113 |
| Nc1ncnc2c1ncn2[C@@H]1O[C@H](CO)[C@@H](O)[C@@H]1O [Vidarabine (Vira-A)] | 20.1 |
| CC[C@]1(O)C[C@H]2CN(CCc3c([nH]c4ccccc34)[C@@](C(=O)OC)(c3cc4c(cc3OC)N(C=O)[C@H]3[C@@](O)(C(=O)OC)[C@H](OC(C)=O)[C@]5(CC)C=CCN6CC[C@]43[C@@H]65)C2)C1 [Vincristine] | -7.5 |
| CCC1=C[C@@H]2CN(C1)Cc1c([nH]c3ccccc13)[C@@](C(=O)OC)(c1cc3c(cc1OC)N(C)[C@H]1[C@@](O)(C(=O)OC)[C@H](OC(C)=O)[C@]4(CC)C=CCN5CC[C@]31[C@@H]54)C2 [Vinorelbine (Navelbine)] | -1.98 |
| C[C@@H](c1ncncc1F)[C@](O)(Cn1cncn1)c1ccc(F)cc1F [Voriconazole] | 17.5 |
| O=c1c2ccccc2oc2ccccc12 [Xanthone (Genicide)] | 7.85 |
| COC(=O)[C@@H]1[C@H]2C[C@H]3c4[nH]c5ccccc5c4CCN3C[C@@H]2CC[C@@H]1O [Yohimbine hydrochloride (Antagonil)] | 7.7 |
| Nc1ccn([C@H]2CC[C@@H](CO)O2)c(=O)n1 [Zalcitabine] | 3.28 |
| CC(c1cc2ccccc2s1)N(O)C(N)=O (centres unmarked) [Zileuton] | -10.2 |
| O=C1Cc2cc(CCN3CCN(c4nsc5ccccc45)CC3)c(Cl)cc2N1 [Ziprasidone hydrochloride] | 8.38 |
| O=P(O)(O)C(O)(Cn1ccnc1)P(=O)(O)O [Zoledronic Acid (Zoledronate)] | -0.211 |
| CN(C)CCc1c[nH]c2ccc(C[C@H]3COC(=O)N3)cc12 [Zolmitriptan (Zomig)] | 41.2 |
| NS(=O)(=O)Cc1noc2ccccc12 [Zonisamide] | -5.91 |
| CC[C@H](CC[C@@H](C)[C@H]1CC[C@H]2[C@@H]3CC=C4C[C@@H](O)CC[C@]4(C)[C@H]3CC[C@]12C)C(C)C [β-Sitosterol] | -0.368 |

Target: T2, GluN2B (Homo sapiens, UniProt Q05586+Q13224)
T2 construct: gene GRIN2B; with GluN1 (Q05586)
Test: automated patch clamp of HEK293 cells stably expressing human GluN1/GluN2B
Format: cell-based
Settings: not given

T2 sequence (Q13224 27-1484, other chains not shown): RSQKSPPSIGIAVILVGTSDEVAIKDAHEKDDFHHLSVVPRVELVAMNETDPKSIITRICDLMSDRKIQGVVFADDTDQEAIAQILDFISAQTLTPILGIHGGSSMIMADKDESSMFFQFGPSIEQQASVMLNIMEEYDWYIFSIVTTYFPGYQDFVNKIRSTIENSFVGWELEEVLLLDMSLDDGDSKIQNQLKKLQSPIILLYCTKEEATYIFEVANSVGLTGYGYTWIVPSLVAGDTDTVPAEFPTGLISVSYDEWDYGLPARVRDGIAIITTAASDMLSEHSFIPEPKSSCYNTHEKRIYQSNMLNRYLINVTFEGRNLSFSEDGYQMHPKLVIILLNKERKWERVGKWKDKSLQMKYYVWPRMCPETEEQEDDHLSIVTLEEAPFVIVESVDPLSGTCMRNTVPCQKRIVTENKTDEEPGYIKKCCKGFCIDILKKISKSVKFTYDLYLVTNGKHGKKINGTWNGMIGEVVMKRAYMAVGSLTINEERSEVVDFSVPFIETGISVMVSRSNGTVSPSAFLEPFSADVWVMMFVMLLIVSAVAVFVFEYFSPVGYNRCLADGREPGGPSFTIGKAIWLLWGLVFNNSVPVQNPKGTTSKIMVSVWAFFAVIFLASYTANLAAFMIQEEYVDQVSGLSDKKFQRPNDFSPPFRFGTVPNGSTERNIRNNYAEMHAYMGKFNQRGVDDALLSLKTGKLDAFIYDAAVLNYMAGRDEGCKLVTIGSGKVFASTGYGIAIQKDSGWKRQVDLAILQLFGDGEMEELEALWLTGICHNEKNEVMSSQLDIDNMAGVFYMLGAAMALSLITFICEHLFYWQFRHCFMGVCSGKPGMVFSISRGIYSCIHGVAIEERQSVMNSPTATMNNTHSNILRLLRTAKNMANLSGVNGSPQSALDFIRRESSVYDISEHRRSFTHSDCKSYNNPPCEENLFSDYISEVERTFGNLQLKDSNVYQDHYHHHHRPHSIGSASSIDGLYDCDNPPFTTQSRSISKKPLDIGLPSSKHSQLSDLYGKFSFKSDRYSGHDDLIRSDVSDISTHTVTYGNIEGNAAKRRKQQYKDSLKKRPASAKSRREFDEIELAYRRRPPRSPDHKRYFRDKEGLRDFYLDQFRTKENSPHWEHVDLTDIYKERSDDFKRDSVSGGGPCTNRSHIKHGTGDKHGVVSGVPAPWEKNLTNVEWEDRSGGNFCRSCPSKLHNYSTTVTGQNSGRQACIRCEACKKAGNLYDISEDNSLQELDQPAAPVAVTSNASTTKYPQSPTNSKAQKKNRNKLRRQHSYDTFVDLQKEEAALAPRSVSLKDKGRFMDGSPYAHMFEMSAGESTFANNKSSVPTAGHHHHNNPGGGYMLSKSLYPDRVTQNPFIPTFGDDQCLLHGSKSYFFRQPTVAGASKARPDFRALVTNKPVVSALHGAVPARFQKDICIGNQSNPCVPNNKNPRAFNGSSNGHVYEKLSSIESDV

| SMILES | IC50 [nM] |
| --- | --- |
| N[C@H](CCCP(=O)(O)O)C(=O)O [D-APV] | 1140 |

Target: T3, GluN2A (Homo sapiens, UniProt Q05586+Q12879)
T3 construct: gene GRIN2A
Test: not given
Settings: not given

T3 sequence (Q12879 23-1464, other chains not shown): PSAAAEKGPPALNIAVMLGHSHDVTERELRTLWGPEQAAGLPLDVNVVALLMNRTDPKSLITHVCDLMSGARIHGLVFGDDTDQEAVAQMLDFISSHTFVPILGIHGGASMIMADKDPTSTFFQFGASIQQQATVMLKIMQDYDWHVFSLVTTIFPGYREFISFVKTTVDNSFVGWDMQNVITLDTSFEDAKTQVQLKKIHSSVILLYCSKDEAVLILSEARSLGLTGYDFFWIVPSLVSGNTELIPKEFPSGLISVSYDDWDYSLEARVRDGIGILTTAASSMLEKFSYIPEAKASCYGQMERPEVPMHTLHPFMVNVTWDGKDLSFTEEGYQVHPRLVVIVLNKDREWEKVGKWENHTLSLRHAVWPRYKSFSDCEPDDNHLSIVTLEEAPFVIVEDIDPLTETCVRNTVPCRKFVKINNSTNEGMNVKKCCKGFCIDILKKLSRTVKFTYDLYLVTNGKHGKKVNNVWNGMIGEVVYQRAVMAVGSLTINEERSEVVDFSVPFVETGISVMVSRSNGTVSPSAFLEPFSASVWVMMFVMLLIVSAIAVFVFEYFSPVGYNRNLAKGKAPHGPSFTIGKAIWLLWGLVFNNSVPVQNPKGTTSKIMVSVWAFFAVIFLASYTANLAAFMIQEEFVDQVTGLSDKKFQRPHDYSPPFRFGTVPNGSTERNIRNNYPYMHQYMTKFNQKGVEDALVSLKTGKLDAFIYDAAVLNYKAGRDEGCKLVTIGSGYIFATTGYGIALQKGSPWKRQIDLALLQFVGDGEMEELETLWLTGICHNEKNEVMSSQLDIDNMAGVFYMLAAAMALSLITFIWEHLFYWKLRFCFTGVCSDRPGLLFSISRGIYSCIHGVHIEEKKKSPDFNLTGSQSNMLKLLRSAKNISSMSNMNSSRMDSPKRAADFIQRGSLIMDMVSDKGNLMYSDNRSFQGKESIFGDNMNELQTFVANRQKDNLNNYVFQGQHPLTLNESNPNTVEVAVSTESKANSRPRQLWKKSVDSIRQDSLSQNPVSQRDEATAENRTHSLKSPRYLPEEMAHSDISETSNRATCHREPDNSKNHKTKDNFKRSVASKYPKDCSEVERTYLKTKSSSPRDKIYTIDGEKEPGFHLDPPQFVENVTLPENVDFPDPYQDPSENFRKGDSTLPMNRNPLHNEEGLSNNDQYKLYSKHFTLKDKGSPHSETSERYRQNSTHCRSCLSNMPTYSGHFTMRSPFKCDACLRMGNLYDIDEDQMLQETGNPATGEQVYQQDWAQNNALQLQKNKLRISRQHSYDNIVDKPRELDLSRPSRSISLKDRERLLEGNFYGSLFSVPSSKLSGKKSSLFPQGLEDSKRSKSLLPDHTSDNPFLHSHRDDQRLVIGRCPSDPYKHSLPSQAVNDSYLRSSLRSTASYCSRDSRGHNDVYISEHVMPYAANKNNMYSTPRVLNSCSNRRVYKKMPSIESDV

| SMILES | IC50 [nM] |
| --- | --- |
| N[C@H](CCCP(=O)(O)O)C(=O)O [D-APV] | 1480 |
